Results from article PMC5936891, “A focused library synthesis and cytotoxicity of quinones derived from the natural product bolinaquinone” (Royal Society Open Science, 2018).

Legend:
[1] = tested on: SMA (spontaneous murine astrocytoma); test: MTT in vitro growth inhibition assay, SMA; assay type: cell-based; conditions: Mus musculus; for inhibition at 25 µM: 25 µM of drug, 72 h, read-out: Percentage of Cell Growth Inhibition SMA; for GI50: 72 h drug exposure
Source text: (§1) With the desired bolinaquinone analogues 12–43 in hand, we examined their cytotoxicity against a panel of 11 tumour cell lines: HT29 (colon carcinoma), U87 and SJ-G2 (glioblastoma), MCF-7 (breast carcinoma), A2780 (ovarian carcinoma), H460 (lung carcinoma), A431 (skin carcinoma), Du145 (prostate carcinoma), BE2-C (neuroblastoma), MIA (pancreatic carcinoma), SMA (spontaneous murine astrocytoma) and a normal breast cell line (MCF10A). The inclusion of the MCF-10A cell line allowed a determination of a crude measure of relative toxicity while noting that the ultimate arbiter of toxicity requires in vivo evaluation. All analogues were initially screened at a 25 µM drug concentration.
(§2) Stock solutions were prepared as follows and stored at −20°C: drugs were stored as 40 mM solutions in DMSO. All cell lines were cultured in a humidified atmosphere 5% CO2 at 37°C. The cancer cell lines were maintained in Dulbecco's modified Eagle's medium (DMEM) (Trace Biosciences, Australia) supplemented with 10% fetal bovine serum, 10 mM sodium bicarbonate, penicillin (100 IU ml^−1), streptomycin (100 µg ml^−1) and glutamine (4 mM). The non-cancer MCF10A cell line was cultured in DMEM:F12 (1 : 1) cell culture media, 5% heat-inactivated horse serum, supplemented with penicillin (50 IU ml^−1), streptomycin (50 µg ml^−1), 20 mM Hepes, L-glutamine (2 mM), epidermal growth factor (20 ng ml^−1), hydrocortisone (500 ng ml^−1), cholera toxin (100 ng ml^−1) and insulin (10 ug ml^−1).
(§3) Cells in logarithmic growth were transferred to 96-well plates. Cytotoxicity was determined by plating cells in duplicate in 100 µl medium at a density of 2500–4000 cells per well. On day 0 (24 h after plating), when the cells were in logarithmic growth, 100 μl of medium with or without the test agent was added to each well. After 72 h, drug exposure growth inhibitory effects were evaluated using the MTT (3-[4,5-dimethylthiazol-2-yl]-2,5-diphenyl-tetrazolium bromide) assay and the absorbance read at 540 nm. Percentage growth inhibition was determined at a fixed drug concentration of 25 µM. A value of 100% is indicative of complete cell growth inhibition. Those analogues showing appreciable percentage growth inhibition underwent further dose–response analysis allowing for the calculation of a GI50 value. This value is the drug concentration at which cell growth is 50% inhibited based on the difference between the optical density values on day 0 and those at the end of drug exposure.

[2] = tested on: A2780 (ovarian carcinoma); test: MTT in vitro growth inhibition assay, A2780; assay type: cell-based; conditions: Homo sapiens; for inhibition at 25 µM: 25 µM of drug, 72 h, read-out: Percentage of Cell Growth Inhibition A2780; for GI50: 72 h drug exposure
Source text: as §1, §2, §3

A431 (skin carcinoma) = test: MTT in vitro growth inhibition assay, A431; assay type: cell-based; conditions: Homo sapiens; for inhibition at 25 µM: A-431, 25 µM of drug, 72 h, read-out: Percentage of Cell Growth Inhibition A431; for GI50: A-431, 72 h, 72 h drug exposure
Source text: as §1, §2, §3

H460 (lung carcinoma) = test: MTT in vitro growth inhibition assay, H460; assay type: cell-based; conditions: Homo sapiens; for inhibition at 25 µM: NCI-H460, 25 µM of drug, 72 h, read-out: Percentage of Cell Growth Inhibition H460; for GI50: NCI-H460, 72 h drug exposure
Source text: as §1, §2, §3

[3] = tested on: Du145 (prostate carcinoma); test: MTT in vitro growth inhibition assay, Du145; assay type: cell-based; conditions: Homo sapiens, DU-145, 25 µM of drug, 72 h, read-out: Percentage of Cell Growth Inhibition Du145
Source text: as §1, §2, §3

MCF-7 (breast carcinoma) = test: MTT in vitro growth inhibition assay, MCF-7; assay type: cell-based; conditions: Homo sapiens; for inhibition at 25 µM: MCF7, 25 µM of drug, 72 h, read-out: Percentage of Cell Growth Inhibition MCF-7; for GI50: MCF7, 72 h drug exposure
Source text: as §1, §2, §3

[4] = tested on: MIA (pancreatic carcinoma); test: MTT in vitro growth inhibition assay, MIA; assay type: cell-based; conditions: for inhibition at 25 µM: 25 µM of drug, 72 h, read-out: Percentage of Cell Growth Inhibition MIA; for GI50: 72 h drug exposure
Source text: as §1, §2, §3

[5] = tested on: MCF10A (normal breast cell line); test: MTT in vitro growth inhibition assay, MCF10A; assay type: cell-based; conditions: Homo sapiens, MCF-10A; for inhibition at 25 µM: 25 µM of drug, 72 h, read-out: Percentage of Cell Growth Inhibition MCF10A; for GI50: normal breast cell line, 72 h drug exposure
Source text: as §1, §2, §3

HT29 (colon carcinoma) = test: MTT in vitro growth inhibition assay, HT29; assay type: cell-based; conditions: Homo sapiens; for inhibition at 25 µM: HT-29, 25 µM of drug, 72 h, read-out: Percentage of Cell Growth Inhibition HT29; for GI50: HT-29, 72 h drug exposure
Source text: as §1, §2, §3

SJ-G2 (glioblastoma) = test: MTT in vitro growth inhibition assay, SJ-G2; assay type: cell-based; conditions: for inhibition at 25 µM: 25 µM of drug, 72 h, read-out: Percentage of Cell Growth Inhibition SJ-G2; for GI50: 72 h drug exposure
Source text: as §1, §2, §3

BE2-C (neuroblastoma) = test: MTT in vitro growth inhibition assay, BE2-C; assay type: cell-based; conditions: Homo sapiens, BE(2)-C, 72 h; for inhibition at 25 µM: 25 µM of drug, read-out: Percentage of Cell Growth Inhibition BE2-C; for GI50: 72 h drug exposure
Source text: as §1, §2, §3

U87 (glioblastoma) = test: MTT in vitro growth inhibition assay, U87; assay type: cell-based; conditions: for inhibition at 25 µM: 25 µM of drug, 72 h, read-out: Percentage of Cell Growth Inhibition U87; for GI50: 72 h drug exposure
Source text: as §1, §2, §3

Structure (SMILES) | inhibition at 25 µM [1] | GI50 [1] | inhibition at 25 µM [2] | GI50 [2] | inhibition at 25 µM (A431 (skin carcinoma)) | GI50 (A431 (skin carcinoma)) | inhibition at 25 µM (H460 (lung carcinoma)) | inhibition at 25 µM [3] | inhibition at 25 µM (MCF-7 (breast carcinoma)) | GI50 (MCF-7 (breast carcinoma)) | inhibition at 25 µM [4] | GI50 [4] | inhibition at 25 µM [5] | inhibition at 25 µM (HT29 (colon carcinoma)) | GI50 (HT29 (colon carcinoma)) | inhibition at 25 µM (SJ-G2 (glioblastoma)) | GI50 (SJ-G2 (glioblastoma)) | inhibition at 25 µM (BE2-C (neuroblastoma)) | GI50 (BE2-C (neuroblastoma)) | inhibition at 25 µM (U87 (glioblastoma)) | further results
COC1=CC(=O)C(OC)=C(c2ccccc2)C1=O [compound 12, 2,5-Dimethoxy-3-phenylcyclohexa-2,5-diene-1,4-dione] | 49 ± 8% | 29 ± 3.2 µM | 75 ± 7% | 18 ± 0.7 µM | 10 ± 3% | 40 ± 4.5 µM | < 10% | < 10% | 40 ± 3% | 22 ± 3.4 µM | 31 ± 5% | 29 ± 1.5 µM | < 10% | 24 ± 1% | 42 ± 6.2 µM | 27 ± 6% | 27 ± 0.9 µM | > 100% | 10 ± 1.1 µM | 12 ± 2% | GI50 (H460 (lung carcinoma)): > 50 µM; melting point: 122 to 124 °C; GI50 (U87 (glioblastoma)): 47 ± 2.2 µM
COC1=CC(=O)C(OC)=C(c2ccc(C)cc2)C1=O [compound 13, 2,5-Dimethoxy-3-p-tolylcyclohexa-2,5-diene-1,4-dione] | 45 ± 9% | 33 ± 2.3 µM | 72 ± 10% | 20 ± 1.2 µM | < 10% | > 50 µM | 13 ± 3% | 13 ± 2% | 23 ± 3% | 37 ± 1 µM | < 10% | > 50 µM | 10 ± 5% | 10 ± 4% | > 50 µM | 41 ± 18% | 33 ± 1.9 µM | > 100% | 12 ± 1.2 µM | 13 ± 4% | GI50 (H460 (lung carcinoma)): > 50 µM; GI50 [5]: 50 ± 9.2 µM; GI50 (U87 (glioblastoma)): > 50 µM
COC1=CC(=O)C(OC)=C(c2ccc(O)cc2)C1=O [compound 16, 3-(4-Hydroxyphenyl)-2,5-dimethoxycyclohexa-2,5-diene-1,4-dione] | – | 50 ± 3.2 µM | < 10% | 35 ± 1.9 µM | > 100% | – | < 10% | 21 ± 6% | 15% | – | < 10% | – | – | 11 ± 3% | – | 21 ± 9% | 43 ± 1.5 µM | < 10% | ~11 µM | < 10% | –
COC1=CC(=O)C(OC)=C(c2ccc(CO)cc2)C1=O [compound 17, 3-(4-(Hydroxymethyl)phenyl)-2,5-dimethoxycyclohexa-2,5-diene-1,4-diene] | 21 ± 10% | 37 ± 0.7 µM | 53 ± 5% | 22 ± 0.9 µM | < 10% | – | < 10% | < 10% | < 10% | 36 ± 2 µM | < 10% | 37 ± 1 µM | < 10% | < 10% | – | 22 ± 4% | 33 ± 1.3 µM | > 100% | ~11 µM | < 10% | GI50 [5]: 49 µM; melting point: 116 to 118 °C; GI50 (U87 (glioblastoma)): 45 ± 2.3 µM
COC1=CC(=O)C(OC)=C(c2ccc(OC)cc2OC)C1=O [compound 20, 2,5-Dimethoxy-3-(2,4-dimethoxyphenyl)cyclohexa-2,5-diene-1,4-dione] | 35 ± 8% | 33 ± 3.5 µM | 48 ± 9% | 25 ± 3 µM | 11 ± 4% | – | 10 ± 5% | < 10% | 20 ± 3% | 34 ± 3 µM | < 10% | – | 14 ± 6% | 15 ± 2% | – | 32 ± 6% | 31 ± 1.5 µM | > 100% | ~11 µM | 17 ± 3% | GI50 [5]: 38 ± 5 µM
COC1=CC(=O)C(OC)=C(c2cccc3ccccc23)C1=O [compound 25, 2,5-dimethoxy-3-(naphthalene-1-yl)cyclohexa-2,5-diene-1,4-dione] | 77 ± 3% | 20 ± 1.3 µM | 66 ± 13% | 21 ± 1.3 µM | 8 ± 3% | 47 ± 6.7 µM | < 10% | 10 ± 5% | 28 ± 2% | 29 ± 2 µM | 18 ± 4% | 42 ± 3.5 µM | < 10% | 16 ± 3% | 43 ± 5.5 µM | 54 ± 19% | 22 ± 1.5 µM | > 100% | 8 ± 0.5 µM | 10 ± 2% | melting point: 134 to 137 °C
